SMILES strings stand for the structures.

Here are results for one compound from patent US12576099B2, “Ribose-modified cap analog and use thereof” (Beijing Youcare Kechuang Pharmaceutical Technology Co., Ltd., priority 2024, dated 2026).

Data set [1] deals with T1, T7 RNA polymerase (Escherichia phage T7, UniProt P00573). Put plainly: In vitro transcription yield of mRNA using cap analogs. In kind it is biochemical. Here is the method:
• (1) Capping synthesis using cap analogs
The plasmid was first linearized with plasmid linearizing enzyme, and then the linearized plasmid was purified. • (2) In vitro transcription and synthesis of mRNA
(§1) During the experiment, the volume of materials required for the system was first calculated, and then sample addition was conducted. The system was first added with sterile enzyme-free water, followed by the sequential addition of 10× buffer, NTPs, and cap analogs, mixed well, and gently centrifuged. Nuclease inhibitors, inorganic pyrophosphatase, T7RNA polymerase, and linearized DNA templates were then added thereto. The system was mixed well, gently centrifuged, and incubated at 37° C. After 2 hours of incubation, the system was added with 1 U of DNase I and incubated at 37° C. for another 30 minutes. The mRNA precipitate was then washed with 75% ethanol, and after the ethanol was briefly evaporated to dryness, the mRNA was redissolved in sterile enzyme-free water. • (3) The transcription product was purified, and the in vitro transcription yield of mRNA was recorded. • (4) The obtained mRNA was subjected to an annealing reaction with a probe.

Data set [2] is described as follows: Characterization of lipid nanoparticles encapsulating Fluc-mRNA prepared from different cap structures. In kind it is physicochemical. The method, then:
Cationic lipid YK-009 (Beijing Youcare Kechuang Pharmaceutical Technology Co., Ltd.), DSPC (AVT (Shanghai) Pharmaceutical Technology Co., Ltd.), cholesterol (AVT (Shanghai) Pharmaceutical Technology Co., Ltd.), and DMG-PEG2000 were dissolved in ethanol at a molar ratio of 49:10:39.5:1.5, and the mRNA was diluted in 50 mM citrate buffer (pH=4). The ethanol lipid solution was mixed with the Fluc-mRNA aqueous solution prepared from different cap structures at a volume ratio of 1:3 using a microfluidic device at a flow rate of 10 mL/min to prepare LNPs at a weight ratio of total lipid to mRNA of approximately 15:1.
The resulting liposomes were diluted to 10-fold volume with PBS, and then ultrafiltered with a 300 KDa ultrafiltration tube to remove ethanol. The volume was then fixed to a certain volume with PBS. Finally, the LNPs were filtered through a 0.2 μm sterile filter to obtain an LNP preparation encapsulating Fluc-mRNA using YK-009/DSPC/cholesterol/DMG-PEG2000 (at a molar ratio of 49:10:39.5:1.5).
The particle size and polydispersity index (PDI) were determined by dynamic light scattering using a Malvern laser particle size analyzer. 10 μL of the liposome solution was taken, diluted to 1 mL with RNase-free deionized water, and added to a sample pool. Each sample was measured in triplicate. The measurement conditions were: a scattering angle of 90° and a temperature of 25° C. The encapsulation efficiency of LNPs was determined using the Quant-iT RiboGreen RNA Quantification Kit (Thermo Fisher Scientific, UK) according to the manufacturer's instructions.

In the next data set the test system is HEK293T cells. Put plainly: Translation efficiency of different capped luciferase mRNAs. In kind it is cell-based. Here is the method:
• (1) HEK293T cells were cultured in DMEM medium containing 10% FBS and penicillin/streptomycin at 37° C. with 5% CO2. • (2)Cells in the culture dish were digested and counted, then spread in a 96-well plate at 10,000 cells per well, and cultured overnight until the cells adhered to the wall. • (3) When the cell density reached approximately 80%, transfection was performed by adding 0.5 μg of mRNA sample and Lipofectamine MessengerMAX Transfection Reagent (Invitrogen) per well according to the manufacturer's instructions. • (4) After the transfected cells were cultured at 37° C. with 5% CO2 for 24 hours, the growth medium was removed from the cells to be tested, and the cells were rinsed with PBS. After centrifugation to remove PBS, 50 μL of 1× lysis buffer was added. The cells and all liquid were transferred to a microcentrifuge tube and centrifuged. • (5) 20 μL of sample was taken and added to 100 μL of Dual-Lumi™ II Luciferase Assay Reagent pre-equilibrated to room temperature, and mixed appropriately. • (6) The mixture was incubated at room temperature (approximately 25° C.) for 5 minutes to stabilize the luminescence signal. Chemiluminescence was detected using a multifunctional microplate reader with a function for detecting chemiluminescence, and the data were recorded.
The relative fluorescence intensity is proportional to the translation efficiency of mRNA.

The target in another data set is T2, DCP2 enzyme (Schizosaccharomyces pombe, UniProt O13828).
T2 construct: purchased New England Biolabs
T2 sequence (O13828 1-243 limits assumed): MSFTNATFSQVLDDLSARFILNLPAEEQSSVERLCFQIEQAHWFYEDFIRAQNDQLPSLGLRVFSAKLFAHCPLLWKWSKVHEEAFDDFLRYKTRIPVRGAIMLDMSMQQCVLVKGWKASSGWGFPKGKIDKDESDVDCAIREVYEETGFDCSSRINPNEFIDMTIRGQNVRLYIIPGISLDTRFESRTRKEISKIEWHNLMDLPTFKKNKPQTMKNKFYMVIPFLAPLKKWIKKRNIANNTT
T2 sequence (Q9P805 1-127 partner): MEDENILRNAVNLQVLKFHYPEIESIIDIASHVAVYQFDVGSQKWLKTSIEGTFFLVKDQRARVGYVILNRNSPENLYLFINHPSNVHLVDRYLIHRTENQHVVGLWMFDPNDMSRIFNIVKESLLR
T2 sequence (Q10108 155-180 partner limits assumed): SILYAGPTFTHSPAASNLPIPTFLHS
Put plainly: Decapping enzyme stability test. In kind it is biochemical. The method, then: […] of RNA purified by polyacrylamide gel electrophoresis (PAGE) was subjected to an enzymatic reaction with 50 U of mRNA decapping enzyme (New England Biolabs) and 1×MDE buffer at 37° C. for 45 minutes. The enzymatic reactants were subjected to PAGE and stained with SYBR Green II (Lonza), followed by observation of the post-electrophoresis gel image on a Typhoon FLA 7000 (GE Healthcare) instrument. The electrophoresis band intensity ratio of RNA capping to RNA decapping was counted using ImageQuant (GE Healthcare) software, and the decapping rate of the decapping enzyme was calculated.

For data set [3], the target named is T1, T7 RNA polymerase. Put plainly: Capping rate of mRNA transcription initiated by cap analogs (LC-MS). The data set is classed as biochemical. Here is the method:
as §1
The annealing reaction was performed in a PCR instrument: 95° C. for 5 minutes; 65° C. for 2 minutes; 55° C. for 2 minutes; 40° C. for 2 minutes; 22° C. for 2 minutes. • (5) Magnetic bead pretreatment and probe binding: 100 μL of magnetic beads was placed on a magnetic frame for pretreatment. The magnetic bead solution was added with 120 μL of sample and incubated at room temperature for 30 minutes with slow mixing. • (6) mRNA splicing and obtaining the mRNA 5′ single-strand sequence bound to the probe
The mixture was added with 20 μL of RNase H (5 U/μL) and incubated at 37° C. for 3 hours with mixing every half hour. After incubation, the magnetic beads were washed and then added with 100 μL of 75% methanol heated to 80° C. The mixture was heated to 80° C. on a heating plate, held for 3 minutes, then placed on a magnetic frame to aspirate the supernatant, and dried at room temperature for 45 minutes to a volume of 10 μL using a centrifugal evaporator. The sample was then resuspended in 50 μL of 100 μM EDTA/1% MeOH and ready for LC-MS analysis to determine the capping of RNA in the transcription reaction. Since there is a significant difference in molecular weight between capped and uncapped bases, the capping rate of mRNA transcription initiated by different cap analogs can be determined based on the difference in molecular mass.

T1 sequence (P00573 whole entry): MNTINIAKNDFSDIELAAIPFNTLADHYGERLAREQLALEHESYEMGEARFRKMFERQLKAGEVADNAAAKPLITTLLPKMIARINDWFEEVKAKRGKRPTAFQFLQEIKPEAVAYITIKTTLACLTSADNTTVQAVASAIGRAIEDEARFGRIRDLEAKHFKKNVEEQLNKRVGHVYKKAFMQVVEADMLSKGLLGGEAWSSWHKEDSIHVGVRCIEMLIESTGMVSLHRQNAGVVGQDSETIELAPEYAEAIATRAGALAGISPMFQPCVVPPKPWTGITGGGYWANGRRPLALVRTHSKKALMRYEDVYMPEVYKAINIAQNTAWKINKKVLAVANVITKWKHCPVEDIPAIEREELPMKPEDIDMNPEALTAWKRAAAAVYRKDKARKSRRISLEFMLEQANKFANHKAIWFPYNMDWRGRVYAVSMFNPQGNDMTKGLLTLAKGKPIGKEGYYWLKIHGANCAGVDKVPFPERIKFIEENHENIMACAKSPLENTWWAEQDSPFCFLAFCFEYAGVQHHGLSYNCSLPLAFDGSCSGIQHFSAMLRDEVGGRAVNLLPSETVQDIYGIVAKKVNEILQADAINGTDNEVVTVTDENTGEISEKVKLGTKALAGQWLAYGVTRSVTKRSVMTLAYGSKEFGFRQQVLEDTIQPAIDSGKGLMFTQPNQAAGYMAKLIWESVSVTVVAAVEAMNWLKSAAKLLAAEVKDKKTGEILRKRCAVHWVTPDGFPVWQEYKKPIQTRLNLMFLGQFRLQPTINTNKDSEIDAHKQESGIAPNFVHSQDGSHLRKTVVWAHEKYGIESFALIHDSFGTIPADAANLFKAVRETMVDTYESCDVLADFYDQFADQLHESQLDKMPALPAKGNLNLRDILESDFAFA

`CO[C@@H]1[C@H](OP(=O)(O)OC[C@H]2O[C@@H](n3cnc4c(=O)[nH]c(N)nc43)[C@H](O)[C@@H]2O)[C@@H](COP(=O)(O)OP(=O)(O)OP(=O)(O)OC[C@H]2O[C@@H]([n+]3cn(C)c4c(=O)[nH]c(N)nc43)[C@H](O)[C@]2(F)CN(C)C)O[C@H]1n1cnc2c(N)ncnc21` [YK-CAP-104]: at T7 RNA polymerase [1] (in vitro transcription, 1 μg DNA template, 37° C., 2 hours), the “Yield per unit template” value turned out to be 73.2 µg. For the same compound, the “Increase relative to 5227 (in vitro transcription yield)” value on T7 RNA polymerase [1] (relative to 5227) is −45.5%. Further, in data set [2] (LNP (YK-009/DSPC/cholesterol/DMG-PEG2000) with Fluc-mRNA transcribed using the named cap analog), the Particle size worked out at 69.24 nm. Moreover, the PDI in data set [2] (LNP with Fluc-mRNA transcribed using the named cap analog) is recorded as 0.047. Besides, in data set [2] (encapsulation efficiency of LNP with Fluc-mRNA transcribed using the named cap analog), the EE worked out at 95.7%. This compound gave a Relative fluorescence intensity in the data set with HEK293T cells (HEK293T, 0.5 μg mRNA per well, 24 hours, proportional to translation efficiency) of 0.81. The “Multiple of m6A (relative fluorescence intensity)” value in the data set on HEK293T cells (relative to m6A) stood at 2.1. Besides, the “Decapping rate (%) of DCP2 enzyme” value on DCP2 enzyme (50 U mRNA decapping enzyme, 37° C., 45 minutes) turned out to be 46.1%. Further, the “Decrease relative to N-7113 (decapping rate)” value on DCP2 enzyme (relative to N-7113) is listed as −2.3%. At T7 RNA polymerase [3] (LC-MS of mRNA 5′ fragment), this compound yielded a Capping rate of 77.2%. For the same compound, the “Increase relative to 5227 (capping rate)” value at T7 RNA polymerase [3] (relative to 5227) came out at 7.4%.
